“Also recorded” adds a separate entry of the source.
Tests used:
U118MG cells = test: Protection against cell death induced by glutamate in U118MG cell culture; assay type: cell-based, human
Description: Cell cultures of various human glial type cell lines (T98G, U87MG, A172, U118MG), as well as human neuronal type cell lines SH-SY 5Y and Be(2)-C were used to test the new compounds. In addition, the rat glioma cell line C6 was used. PC12 cells originating from rats were used as another cell line displaying neuronal characteristics. The applicants also have produced, by genetic manipulation, a modified rat C6 glial cell strain and a modified human U118MG glial type cell strain, both under-expressing the TSPO, which allows to study TSPO specific effects, including of the compounds of the invention, which can be done according to methods described previously (Weisinger et al. Biochemistry. 2004; 43:12315-21; Levin et al. 2005; Zeno et al., 2009).
The protective capabilities of the compounds of the invention and involvement of the TSPO were tested in cell culture, using cell lines of glial and neuronal type, cultured and testing according to standard methods (Kugler et al. 2008; Zeno et al. 2009; Dadon-Nachum et al. Stem Cell Rev. 2011; 7:664-71). Furthermore, primary cell cultures are also used (Banker, G. et al. Culturing Nerve Cells, 2nd Edition, The MIT Press (1998). Treatments included: (1) exposure to glutamate (35 mM), Abeta(1-42), NH4Cl, CoCl2, and nitric oxide (NO) donors, in order to mimic particular aspects of neurodegeneration; (2) treatment with the novel compounds and with traditional TSPO ligands as comparative treatment; and (3) TSPO knockdown by genetic manipulation.
Techniques and parameters assayed are summarized here: Total protein levels (Bradford. Anal Biochem. 1976; 72:248-54); TSPO ligand binding assays (Kugler et al. 2008; Levin et al. 2005; Danovich et al. Eur Neuropsychopharmacol. 2008; 18:24-33) cell death, including apoptosis and necrosis and related molecular biological processes (Soustiel et al. Neuropathol Appl Neurobiol. 2008; 34:412-23; Soustiel et al. Exp Neurol. 2008; 214:201-8; Zeno et al. 2009); mitochondrial transmembrane potential collapse (Chelli et al. Biochem Pharmacol. 2004; 68:125-34; Kugler et al. 2008; Zeno et al., 2009; Shargorodsky et al. Apoptosis. 2012; 17:647-65), reactive oxygen species (ROS) generation as a measure of oxidative stress (Veenman et al. 2008; Zeno et al. 2009); TSPO knockdown (Levin et al. 2005; Zeno et al. 2009); expression levels of mitochondrial TSPO and associated proteins (Veenman et al. 2002; Levin et al. 2005; Veenman et al. 2008); gene expression with RT-PCR and microarray analysis (Bode et al. 2012; Veenman et al. 2012). Parameters of inflammation, immune response, migration, and the cell cycle are also tested. All these approaches can also be applied for quality control of the compounds.
The compounds of the invention protect against cell death induced by glutamate in cell culture of U118MG cells of astrocytic origin (FIGS. 1, 2, 3 and 8) or SH SY 6Y cells of neuronal origin (FIG. 4). […] In the control group, 35 mM of glutamate killed ˜60% of the cells.
The experimental setup is explained using FIG. 8B as an example: • 1. Control: Cell death levels are taken as 0% • 2. Glu: Cell death levels induced by glutamate are over 50% • 3. […] Glu+Cpd 5: When Cpd 5 is given as a treatment to counteract cell death induced by glutamate, increasing concentrations of Cpd 5 reduce cell death levels from over 50% to less than 5%.

R6-2 mice = test: Lifespan of R6-2 mice, transgenic model for Huntington Disease; assay type: in vivo, mouse; settings: daily s.c. injections 5 days a week from week 5, vs DMSO and saline
Description: For the assays described herein systemic injections of kainic in rats were applied and also contusion (Veenman et al. 2002; Soustiel et al. Neuropathol Appl Neurobiol. 2008; Soustiel et al. Exp Neurol. 2008). These models present very well defined cell death in the brain. Cell death in the brain is the major pathological characteristic of progressing neurodegeneration common to brain diseases. As the compounds of the present invention are designed to prevent cell death in the brain as a consequence of disease and progressing brain damage after injury, including behavioral impairments, animal models displaying cell death in the brain are the models of choice for displaying the protective capabilities of the compounds of the invention. For these reasons the R6-2 model for Huntington Disease was chosen to test the effectiveness of Compound 1 and to compare the effectiveness of Compound 1 with those of the compound of U.S. Pat. No. 8,541,428 (Cpd A) and with the classical TSPO ligand PK 11195, as well as other compounds disclosed herein. Compounds 5 and 6 were also tested in the same R6-2 model.
R6-2 is a transgenic mouse model for Huntington Disease. Huntington Disease in humans is a hereditary neurodegenerative disease affecting motor performance and finally leading to death of the patients having the disease. R6-2 mice (˜120 CAG repeats B6CBA-Tg(HDexon1)62 Gpb/3J) mice were used for the experiments described below. For this purpose, mice obtained from the Jackson Laboratory (ME) were bred. In particular: males genotype: Hemizygous for Tg(HDexon1)62 Gpb, and females from the wildtype background strain B6CBAF1/J were bred according to the protocol of Jackson Laboratory. The male heterozygote offspring (R6-2 mice) were used for determining life span and motor activity, with and without drug treatment. Drug treatment consisted of daily (5 continuous days a week) subcutaneous injections of mice with 20 μl of: saline (sham control), vehicle DMSO (vehicle control), classic TSPO ligand PK 11195 (15 mg/kg), prior art Compound A (15 mg/kg), Compound 1 (15 mg/kg), and compound 1 (7.5 mg/kg). Drug treatment started on week 5 after birth. Quantities were used according to previous studies regarding TSPO ligands.
Apart from the behavioral experiments, mice were observed daily, and the day of death was noted. Behavioral experiments included distance covered in an open field apparatus, and tremor measurements.
R6-2 mice were used as previously described in Example 5. In one experiment, treatment consisted of daily (5 continuous days per week) subcutaneous injections of mice with 20 μl of vehicle DMSO (control, n=10) and Compound 6 (7.5 mg/kg, n=12). In a separate experiment, compound 5 (7.5 mg/kg, n=5) was tested, compared to DMSO control (n=5).

Structure (SMILES): CCN(C)C(=O)Oc1nc(-c2ccccc2)nc2ccccc12 [Compound 1, 2-phenylquinazolin-4-yl ethyl(methyl)carbamate]
- protection against cell death induced by glutamate (U118MG cells; U118MG cells, 35 mM glutamate, compound 1-100 μM): significantly protects; also recorded: protect better and more consistently; also recorded: significantly reduces glutamate-induced cell death levels
- Protection against glutamate-induced cell death (U118MG cells; cell culture, grade in words): Excellent
- lethal effect of compound by itself (U118MG cells; compound alone, no glutamate): only very little lethal effect by itself
- effect on lifespan (R6-2 mice): increases average lifespan; also recorded: extends the life span
- effect on lifespan (R6-2 mice; listed as compound 1): enhanced lifespan

— patent US10035780B2, “Quinazoline scaffold based compounds, pharmaceutical compositions and methods of use thereof” (TECHNION RESEARCH & DEVELOPMENT FOUNDATION LTD., priority 2014, dated 2018)
